Measurements reported in publication PMC6550523, “De Novo Emergence of Peptides That Confer Antibiotic Resistance” (mBio, 2019).
Where two headings read alike, the source gives them in different places.

How the values were obtained:
[1] = system: bovine cytochrome c oxidase (CytcO) reconstituted into proteoliposomes; type: biochemical
Protocol: When ionophores (valinomycin, a K^+ ionophore, and/or FCCP, a protonophore similar to CCCP) are added, this gradient is partly or fully dissipated, and the so-called uncoupled rate is reached. […] Thus, we determined the RCRs after adding the Arp-1 and Arp1-L11K peptides, and as positive controls we added valinomycin and FCCP in addition to the peptides (Fig. 4B and Fig. S4C).
(A) CytcO reduces O2 to H2O, using electrons from reduced cytochrome (cyt.) c and protons from inside the liposomes. In addition, protons are pumped and a proton electrochemical gradient (positive outside) across the membrane is established. Valinomycin, a K^+ ionophore, can dissipate the charge component and FCCP, a protonophore, both components of this gradient. (B) A typical oxygen consumption experiment; the baseline with only ascorbate, TMPD, and cyt. c was first measured. Proteoliposomes then were added, initiating oxygen consumption by CytcO and build-up of a membrane potential. The coupled rate is the slope after liposome addition subtracting the baseline. Peptides (Arp1 or L11K), valinomycin, and FCCP were added, in this order, and the rates measured. RCRs were determined by dividing the different rates by the initial coupled rate. […]
CytcO activity was measured using a Clark-type oxygen electrode (Hansatech) at 25°C. […] Oxygen consumption rates and RCRs were measured essentially as described in reference [43].

[2] = system: Escherichia coli K-12 strain BW25113; experiment: MIC determination (Etest) in strains expressing the peptides; type: cell-based; conditions: for Increased aminoglycoside resistance on overexpression of endogenous E. coli peptides: TisB from a pBAD promoter, arabinose 0.0125 to 0.2%, at viable expression levels
Protocol: Most strains used in this study were derived from Escherichia coli K-12 BW25113 (designated E. coli throughout the text) and are listed in Table S1 in the supplemental material. If not indicated otherwise, Muller Hinton broth (MHB) (Becton, Dickinson) was used for growth in liquid cultures and Muller Hinton agar (MHA; MHB supplemented with 15 g/liter agar) for growth on plates. To maintain the plasmid pRD2 or pBAD18, the growth media were supplemented with 100 mg/liter ampicillin or 15 mg/liter chloramphenicol, respectively. Induction of expression was performed in the presence of 1 mM IPTG (pRD2) or 0.2% arabinose (pBAD18). For counterselection of sacB, no-salt lysogeny agar plates (10 g/liter tryptone, 5 g/liter yeast extract, 15 g/liter agar, and 50 g/liter sucrose) were used. Recovery after transformation was done in SOC medium (20 g/liter tryptone, 5 g/liter yeast extract, 0.5 g/liter NaCl, 10 mM MgCl2, […], and 4 g/liter glucose). For washing and dilution of cells, phosphate-buffered saline (PBS; 8 g/liter NaCl, 0.2 g/liter KCl, 1.44 g/liter Na2HPO4, and 0.24 g/liter KH2PO4) was used.
MICs were determined using Etest strips (bioMérieux). Overnight cultures of the strains of interest were diluted 1:20 in PBS and spread on an MHA plate containing 100 mg/liter ampicillin and 1 mM IPTG where necessary with a cotton swab. Etest strips were applied in the middle of the plates and incubated at 37°C overnight. MIC values were scored after 20 h of incubation. Colistin MICs were determined using microdilution. For this, bacteria were grown on MHA with 100 mg/liter ampicillin, and 1 to 2 colonies were dissolved in 1 ml PBS to approximately 0.5 McFarland. The cell suspension was diluted 1:100 in Muller Hinton 2 broth (cation adjusted), and 50 μl was mixed with 50 μl Muller Hinton 2 broth containing 0.4% arabinose, 30 mg/liter chloramphenicol, and a 2-fold dilution series of colistin. The assay was performed in round-bottomed 96-well plates at 37°C overnight in a stationary position. The MIC was determined as the concentration where no growth could be observed and is based on a minimum of two biological replicates. If the determined values of the replicates were not identical, a third replicate was performed.
The site saturation mutagenesis was performed with GeneArt (ThermoFisher) based on the sequence of Arp1, where each position in the wild-type sequence was replaced by the amino acids lysine (K), glutamic acid (E), proline (P), tryptophan (W), and serine (S). All variants were subcloned into our modified expression vector, pBAD18-RND, using the AgeI/HindIII cloning sites, transformed into E. coli, and delivered as a total pool glycerol stock. […] The plasmid variants were determined by Sanger sequencing (Eurofins, Germany). […]

[3] = system: E. coli; experiment: Toxicity of peptides when expressed; type: cell-based, Escherichia coli; conditions: expressed in E. coli from pBAD vector
[4] = system: E. coli membrane potential; experiment: Membrane potential assay with DiBAC4(3); type: cell-based, Escherichia coli; conditions: 100 μM CCCP, 30 min, room temperature; positive control
Protocol: Bacteria were grown overnight in MHB supplemented with 15 mg/liter chloramphenicol at 37°C. The following day all cultures were diluted 1:100 in MHB supplemented with 15 mg/liter chloramphenicol and grown to an OD600 of approximately 0.3 (time point 0). At the target OD600, IPTG was added to each culture to a final concentration of 1 mM, and cells were incubated for another 60 min to allow expression of proteins (time point 1). At both time points, approximately 10^6 cells were transferred to 1 ml PBS with 10 mg/liter DiBAC4(3) (D8189; Sigma-Aldrich) with or without 100 μM carbonyl cyanide 3-chlorophenylhydrazone (CCCP; Sigma-Aldrich) and incubated for 30 min at room temperature in the dark. Fluorescence was measured with a MACSQuant VYB (Miltenyi Biotec) using the GFP/FITC (green fluorescent protein/fluorescein isothiocyanate) channel and a threshold of 15,000 gated cells. The raw data were analyzed and visualized with FlowJo (BD Bioscience).

N#CC(C#N)=NNc1ccc(OC(F)(F)F)cc1 [FCCP]
Effect of ionophore added in addition to Arp1 peptide [1]: fully collapsed the gradient

CC(C)[C@@H]1NC(=O)[C@H](C)OC(=O)[C@@H](C(C)C)NC(=O)[C@@H](C(C)C)OC(=O)[C@H](C(C)C)NC(=O)[C@H](C)OC(=O)[C@@H](C(C)C)NC(=O)[C@@H](C(C)C)OC(=O)[C@H](C(C)C)NC(=O)[C@H](C)OC(=O)[C@@H](C(C)C)NC(=O)[C@@H](C(C)C)OC1=O [Valinomycin, valinomycin]
Effect of ionophore added in addition to Arp1 peptide ([1]; valinomycin 6 μM, then FCCP 21 μM, positive controls): further rate increase

NC[C@H]1O[C@H](O[C@H]2[C@H](O)[C@@H](O[C@H]3O[C@H](CO)[C@@H](O)[C@H](N)[C@H]3O)[C@H](N)C[C@@H]2N)[C@H](O)[C@@H](O)[C@@H]1O [kanamycin]
Kanamycin MIC of the empty vector control strain ([2]; E. coli BW25113 with empty vector, Etest, 37°C, 20 h): 0.75 mg/L

IbsC: endogenous E. coli toxin peptide similar to Arp1-3 in size and hydrophobicity (MMRLVIILIVLLLISFSAY; UniProt C1P615 1-19, looked up)
Increased aminoglycoside resistance on overexpression of endogenous E. coli peptides [2]: no increased resistance

LdrD: endogenous E. coli toxin peptide similar to Arp1-3 in size and hydrophobicity (MTFAELGMAFWHDLAAPVIAGILASMIVNWLNKRK; UniProt Q6BF25 1-35, looked up)
Increased aminoglycoside resistance on overexpression of endogenous E. coli peptides [2]: no increased resistance

TisB: endogenous E. coli K-12 29-mer toxin of a toxin-antitoxin system (MNLVDIAILILKLIVAALQLLDAVLKYLK; UniProt A5A627 1-29, looked up)
Increased aminoglycoside resistance on overexpression of endogenous E. coli peptides [2]: no increased resistance | Toxicity when expressed [3]: lethal

carbonyl cyanide m-chlorophenyl hydrazine [CCCP]
Membrane potential, DiBAC4(3) fluorescence [4]: clear shift to higher fluorescence
